Laboratory results as given in patent US7064218B2, “Aromatic compounds and poly(oxyalkylene) containing aromatic compounds possessing antibacterial, antifungal or antitumor activity” (Genelabs Technologies, Inc., priority 2001, dated 2006).

Experiments:
[1] = test system: yeast and aspergillus species; test: Minimum Inhibitory Concentration (MIC) assay, yeast and filamentous fungi; format: cell-based, Candida albicans; Aspergillus fumigatus; conditions: antifungal; complete inhibition of visible growth, 48 h at 35 C
Description: (§1) These assays are adapted from NCCLS protocols M7-A4 and M27-A (NCCLS vol 17:9 and vol 17:2) as modified by Sandven, S. Clin. Micro. (1999) 37:12, p. 3856–3859. MIC values for Aspergillus fumigatus were determined using NCCLS protocol M38-P.
(§2) All compounds were dissolved in 100% DMSO to a stock concentration of 10 mM and use fresh or stored at −80° C. Stock compounds were kept frozen until needed and used freshly with no more then one freeze-thaw cycle. When used for test purposes, compounds were diluted in the appropriate media depending on the organism being tested.
(§3) For yeast and aspergillus species, seven 1:2 serial dilutions of compound in appropriate media buffered with MOPS at pH 7.0 were prepared such that the final starting test compound concentrations were 50.0 uM for yeast and 50 uM aspergillus species. For bacteria, dilutions were made in growth media used for the particular bacteria being tested.
Five well-separated colonies from a 24 hr Sabouraud Dextrose plate incubated at 35 C were picked and resuspended into 5.0 ml of normal saline. The O.D.530 was read and the culture was adjusted to 0.5 McFarland units with normal saline. A 1:2000 dilution was made with RPMI 1640 media buffered with MOPS at pH 7.0 and 100 μL of this inoculum preparation was added to an equal volume of test compound-containing media. 25 μL of the redox indicator Alamar Blue (Biosource International) was added to each well and the plates were incubated for 48 h at 35 C. Wells having yeast growth changed color from blue to pink.
Inoculums are made by incubating Aspergillus fumigatus for 7 days at 35 C on potato dextrose agar slants. Slants are then covered with 1.0 ml of 0.85% saline, one drop of Tween 20 is added and colonies are teased with a sterile transfer loop to create a suspension which is allowed to sit for 5 min so heavier particles can drop out. The upper suspension is separated and adjusted to an optical density of 0.09 to 0.11. The resulting suspension is diluted 1:50 which yields 2× the final inoculum needed. Micro dilution trays are prepared as with yeast and incubated for 48 h at 35 C. For our purposes the MIC is defined as the lowest compound concentration at which no visible growth is observed after 48 h.

[2] = test system: bacteria; test: Minimum Inhibitory Concentration (MIC) assay, bacteria; format: cell-based; conditions: antibacterial; complete inhibition of visible growth
Description: as §1, §2, §3
Inoculums are made in the same manner as yeast except all dilutions are made in normal saline, with a final dilution of 1:200 and an inoculum of 10 μL.

Row | Structure (SMILES) | MIC [1] [µM] | MIC [2] [µM]
1 | N=C(N)CNC(=O)c1cc(NC(=O)c2ccc(C(=O)Nc3cc(C(=O)NCC(=N)N)n(CC4CC4)c3)cc2)cn1CC1CC1 [Compound 284, N,N′-Bis-[5-(carbamimidoylmethylcarbamoyl)-1-cyclopropylmethyl-1H-pyrrol-3-yl]-terephthalamide] | < 45.5 | < 45.5
2 | CCCCn1cc(NC(=O)c2ccc(C(=O)Nc3cc(C(=O)NCC(=N)N)n(CCCC)c3)cc2)cc1C(=O)NCC(=N)N [Compound 287, N,N′-Bis-[1-butyl-5-(carbamimidoylmethyl-carbamoyl)-1H-pyrrol-3-yl]terephthalamide] | < 45.5 | < 45.5
3 | CCCCn1cc(NC(=O)c2ccc(C(=O)Nc3cc(C(=O)NCC(=N)NC)n(CCCC)c3)cc2)cc1C(=O)NCC(=N)NC [Compound 289, N,N′-Bis-[1-butyl-5-(methylcarbamimidoylmethyl-carbamoyl)-1H-pyrrol-3-yl]terephthalamide] | < 45.5 | < 45.5
4 | CCCCn1cc(NC(=O)c2ccc(C(=O)Nc3cc(C(=O)NCC(=N)NCC)n(CCCC)c3)cc2)cc1C(=O)NCC(=N)NCC [Compound 290, N,N′-Bis-[1-butyl-5-(ethylcarbamimidoylmethyl-carbamoyl)-1H-pyrrol-3-yl]terephthalamide] | < 45.5 | < 45.5
5 | N=C(N)CNC(=O)c1cc(NC(=O)c2ccc(C(=O)Nc3cc(C(=O)NCC(=N)N)n(CC4CC4)c3)nc2)cn1CC1CC1 [Compound 292, Pyridine-2,5-dicarboxylic acid bis{[5-(carbamimidoylmethyl-carbamoyl)-1-cyclopropylmethyl-1H-pyrrol-3-yl]-amide}] | < 45.5 | < 45.5
6 | N=C(N)CNC(=O)c1cc(NC(=O)c2cnc(C(=O)Nc3cc(C(=O)NCC(=N)N)n(CC4CC4)c3)cn2)cn1CC1CC1 [Compound 293, Pyrazine-2,5-dicarboxylic acid bis-{[5-(carbamimidoylmethyl-carbamoyl)-1-cyclopropylmethyl-1H-pyrrol-3-yl]-amide}] | < 45.5 | < 45.5
7 | N=C(N)CNC(=O)c1cc(NC(=O)C2=CC=C(C(=O)Nc3cc(C(=O)NCC(=N)N)n(CC4CC4)c3)CC2)cn1CC1CC1 [Compound 294, Cyclohexa-1,3-diene-1,4-dicarboxylic acid bis-{[5-(carbamimidoylmethyl-carbamoyl)-1-cyclopropylmethyl-1H-pyrrol-3-yl]-amide}] | < 45.5 | < 45.5
8 | N=C(N)CNC(=O)c1cc(NC(=O)c2cc(C(=O)Nc3cc(C(=O)NCC(=N)N)n(CC4CC4)c3)[nH]n2)cn1CC1CC1 [Compound 295, 1H-Pyrazole-3,5-dicarboxylic acid bis-{[5-(carbamimidoylmethyl-carbamoyl)-1-cyclopropylmethyl-1H-pyrrol-3-yl]-amide}] | < 45.5 | < 45.5
